Earlier results in PMC8198792, “Prediction of Anticancer Peptides with High Efficacy and Low Toxicity by Hybrid Model Based on 3D Structure of Peptides” (International Journal of Molecular Sciences, 2021).
Where two headings read alike, the source gives them in different places.

Test system: cancer cell lines
Design: method as in 6 sources, ref CancerPPD [45] and SATPdb ||| ref CancerPPD/SATPdb ||| ref CancerPPD, SATPdb, Swissprot (PDB) ||| ref CancerPPD/SATPdb/Swissprot(PDB) ||| ref CancerPPD / SATPdb ||| ...
Details: cited from earlier work
From the text: Supplement ijms-22-05630-s001.zip/ACPs(seguence).xlsx, sheet "D1" | column: Activity || Supplement ijms-22-05630-s001.zip/ACPs(seguence).xlsx, sheet "D2" | column: Activity || Supplement ijms-22-05630-s001.zip/ACPs(seguence).xlsx, sheet "D3" | column: Activity || (+ 2 further places)

[1] = ACPs dataset D5 (sheet "D5"), label 1 = ACP (positive set), 0 = non-ACP (negative set), ref CancerPPD [45] and SATPdb
[2] = ACPs dataset sheet D2, 1 = ACP (CancerPPD/SATPdb ID), 0 = non-ACP (Swissprot/PDB ID), ref CancerPPD, SATPdb, Swissprot (PDB)
[3] = ACPs dataset D1, label 1 = ACP, 0 = non-ACP (non-anticancer AMPs from SATPdb), ref CancerPPD/SATPdb
[4] = ACPs dataset D4 (sheet "D4"), label 1 = ACP, 0 = non-ACP, ref CancerPPD / SATPdb
[5] = ACPs dataset D1, 1 = ACP (positive), 0 = non-ACP (negative), label taken from databases, ref CancerPPD [45] and SATPdb
[6] = ACPs dataset D4 (sheet "D4"), label 1 = ACP, experimentally validated ACPs, ref CancerPPD [45] and SATPdb
[7] = ACPs dataset D5 (sheet "D5"), label 1 = ACP (positive set), sequences with CancerPPD/SATPdb ID, ref CancerPPD, SATPdb
[8] = ACPs dataset D3 (supplement sheet "D3"), 1 = ACP, 0 = non-ACP, ref CancerPPD [45] and SATPdb
[9] = ACPs dataset D4 (sheet "D4"), label 1 = ACP (CancerPPD ID), 0 = non-ACP (non-anticancer AMP, SATPdb ID), ref CancerPPD [45] and SATPdb
[10] = ACPs dataset D2 (supplement ACPs(seguence).xlsx, sheet D2), dataset label 1/0 (ACP / non-ACP), entries identified by Swissprot(PDB ID), ref CancerPPD/SATPdb/Swissprot(PDB)
[11] = ACPs dataset D5, sheet "D5", label 1 = ACP, 0 = non-ACP, ref CancerPPD [45] and SATPdb

MSAGVITGVLLVFLLLGYLVYALINAEAF [6HRA electron microscopy 3.70, D ,1-29]
Activity [1]: 0 | Activity [2]: 0

KRRHWFPLSFQEFLEQLRRFRDQLPFP [satpdb12966]
Activity [3]: 0 | Activity [4]: 0

SPWTKCSATCGGGHYMRTR [satpdb19979]
Activity [5]: 1 | Activity [6]: 1 | Activity [7]: 1 | Activity [2]: 1

KWKLFKKIPKFLHLAKK [compound 1119]
Activity [8]: 1 | Activity [9]: 1 | Activity [1]: 1

MAELQERIRHFWKESRRAFLVTKKPNWATYKRAAKITGLGIILIGLIGMLIRIVGILILGG [3MP7 X-ray 2.90 B 1-61]
Activity [10]: 0 | Activity [11]: 0

MEKVQYLTRSAIRRASTIEMPQQARQNLQNLFINFCLILICLLLICIIVMLL [1N7L NMR - A 1-52]
Activity [10]: 0 | Activity [11]: 0

TKPRKTKPRKTKPRKTKPR [compound 5055]
Activity [5]: 1 | Activity [6]: 1 | Activity [7]: 1 | Activity [2]: 1

GIGKFLHSAKKFGKAFVGEIMNS [compound 1116]
Activity [8]: 1 | Activity [9]: 1 | Activity [1]: 1

ILGKIWKIKKLF [satpdb10262]
Activity [5]: 0 | Activity [9]: 0

WKSYVRRWRSR [satpdb10329]
Activity [5]: 0 | Activity [9]: 0

LPRFSTMPFIYCNINEVCHY [satpdb13486]
Activity [5]: 1 | Activity [6]: 1 | Activity [7]: 1 | Activity [2]: 1

AEDCVGRKACTREWYPVCGSDGVTYSNPCNFSAQQEQCDPNITIAHMGEC [2N71 NMR - A 1-50]
Activity [10]: 0 | Activity [1]: 0

HFLLTKVNLAKKIL [satpdb11375]
Activity [8]: 0 | Activity [4]: 0 | Activity [11]: 0

ILPFKFPFFPFRR [satpdb11203]
Activity [5]: 0 | Activity [9]: 0

GIWDTIKSMGKVFAGKILQN [satpdb10030]
Activity [5]: 0 | Activity [9]: 0

FFGTALKIAANVLPTAICKILKKC [satpdb13355]
Activity [3]: 0 | Activity [4]: 0

CSTNTFSLSDYWGNKGNWCTATHECMSWCK [satpdb10487]
Activity [5]: 0 | Activity [9]: 0

FLGALAKIISGIF [satpdb11200]
Activity [5]: 0 | Activity [9]: 0

INLKAIAAMAKKL [satpdb11272]
Activity [5]: 0 | Activity [9]: 0

ATYYGNGLYCNKQKCWVDWNKASREIGKIIVNGWVQHGPWAPR [satpdb12250]
Activity [3]: 0 | Activity [9]: 0

GDVIDTDRDIDR [satpdb14246]
Activity [5]: 1 | Activity [6]: 1 | Activity [7]: 1 | Activity [2]: 1

FVQWFSKFLGRIL [6GS5 NMR - A 1-13]
Activity [1]: 0

DFKLFAVTIKYR [satpdb15826]
Activity [5]: 1 | Activity [6]: 1 | Activity [7]: 1 | Activity [2]: 1

DGVKLCDVPSGTWSGHCGSSSKCSQQCKDREHFAYGGACHYQFPSVKCFCKRQC [2N2Q NMR - A 1-54]
Activity [10]: 0 | Activity [11]: 0

LLKWLKK [satpdb13213]
Activity (ACPs dataset D3 (sheet "D3"), label 1 = ACP, 0 = non-ACP, ref CancerPPD/SATPdb): 0 | Activity [4]: 0 | Activity [11]: 0

FLPFIARLAAKVFPSIICSVTKKC [satpdb10560]
Activity [5]: 0 | Activity [9]: 0

SCASRCKGHCRARRCGYYVSVLYRGRCYCKCLRC [2EEM NMR - A 1-34]
Activity [1]: 0 | Activity [2]: 0

GMWSKILGHLIK [compound 3636]
Activity [8]: 1 | Activity [9]: 1 | Activity [1]: 1

GILDKLKEFGISAARGVAQSLLNTTASCKLAKTC [satpdb13132]
Activity [3]: 0 | Activity [4]: 0

RCTCTTIISSSSTF [satpdb11144]
Activity [5]: 0 | Activity [9]: 0

RPFVEMYSEIPE [satpdb28120]
Activity [5]: 1 | Activity [6]: 1 | Activity [7]: 1 | Activity [2]: 1

KAAKKAWKWAKKAAKWAKKAA [compound 4479]
Activity [5]: 1 | Activity [6]: 1 | Activity [7]: 1 | Activity [2]: 1

KTCENLSGTFKGPCIPDGNCNKHCRNNEHLLSGRCRDDFRCWCTNRC [6NOM NMR - A 1-47]
Activity [10]: 0 | Activity [1]: 0

MELVKVVFMGWFKNESMFTKEITMMKDDVQWATTQYAEVNKALVKAFIDDKKVCEVDCRG [5HY3 X-ray 3.10,B,1-60]
Activity [10]: 0 | Activity [11]: 0

CLGVGSCNDFAGCGYAIVCFW [satpdb11014]
Activity [5]: 0 | Activity [9]: 0

FLGWLFKWAWK [compound 1722]
Activity [8]: 1 | Activity [6]: 1 | Activity [7]: 1

GKWMKLLKHILK [compound 3652]
Activity [8]: 1 | Activity [9]: 1 | Activity [1]: 1

GVPICGETCTLGTCYTAGCSCSWPVCTRN [compound 4421]
Activity [5]: 1 | Activity [6]: 1 | Activity [7]: 1 | Activity [2]: 1

HTHQDFQPVLHLVALNTPLSGGMRGIR [satpdb17795]
Activity [5]: 1 | Activity [6]: 1 | Activity [7]: 1 | Activity [2]: 1

GLFDIVKKIAGHIVSSI [compound 1297]
Activity [8]: 1 | Activity [9]: 1 | Activity [1]: 1

IPCGESCVWIPCISGMFGCSCKDKVCYS [compound 4368]
Activity [5]: 1 | Activity [6]: 1 | Activity [7]: 1 | Activity [2]: 1

GCSRWIIGIHGQICRD [satpdb12437]
Activity [3]: 0 | Activity [9]: 0

GILGNIVGMGKQVVCGLSGLC [satpdb10178]
Activity [5]: 0 | Activity [9]: 0

GLASFLGKALKAGLKIGSHLLGGAPQQ [satpdb10480]
Activity [5]: 0 | Activity [9]: 0

GSEGPLKPGARIFSFDGKDVLRHPT [compound 4204]
Activity [5]: 1 | Activity [6]: 1 | Activity [7]: 1 | Activity [2]: 1

KWKLFKKIPKFLHLAKKF [compound 3290]
Activity [5]: 1 | Activity [6]: 1 | Activity [7]: 1 | Activity [2]: 1

MPCSCKKYCDPWEVIDGSCGLFNSKYICCREK [1EWS NMR - A 1-32]
Activity [1]: 0 | Activity [2]: 0

GMWSKILGKLIR [compound 3638]
Activity [8]: 1 | Activity [9]: 1 | Activity [1]: 1

FAKKLAKLAKKLLAL [compound 1790]
Activity [8]: 1 | Activity [6]: 1 | Activity [7]: 1

MDIYVCTVCGYEYDPAKGDPDSGIKPGTKFEDLPDDWACPVCGASKDAFEKQ [2DSX X-ray 0.68 A 1-52]
Activity [10]: 0 | Activity [11]: 0

THRPPMWSPVWPGGGKLlLKlLkkLLKlLKKK [compound 4603]
Activity [8]: 1 | Activity [9]: 1 | Activity [1]: 1

GTFPCGESCVFIPCLTSAIGCSCKSKVCYKN [compound 4418]
Activity [5]: 1 | Activity [6]: 1 | Activity [7]: 1 | Activity [2]: 1

ITIPPIIKDTLKKFFKGGIAGVMGKSQ [satpdb11170]
Activity [5]: 0 | Activity [9]: 0

CETWRTETTGATGQASSLLSGRLLEQKAASCHNSYIVLCIENSFMTSFSK [satpdb15843]
Activity [5]: 1 | Activity [6]: 1 | Activity [7]: 1 | Activity [2]: 1

KWKLFKKIGIGKFKLAKKF [compound 1206]
Activity [8]: 1 | Activity [9]: 1 | Activity [1]: 1

GMATKAGTAFGKAAKAIIGAAL [satpdb11334]
Activity [5]: 0 | Activity [9]: 0

INGSLDKRLLPDVET [satpdb28594]
Activity [5]: 1 | Activity [6]: 1 | Activity [7]: 1 | Activity [2]: 1

VRRFPWWWAFLRR [satpdb11783]
Activity [8]: 0 | Activity [4]: 0 | Activity [11]: 0

FDVNSHTTPCGPVTCSGAQMCEVDKCVCSDLHCKVKCEHGFKKDDNGCEYACICADAPQ [1EJA X-ray 2.70 B 1-59]
Activity [10]: 0 | Activity [11]: 0

VLSIVACSSGCGSGKTAASCVETCGNRCFTNVGSLC [satpdb10613]
Activity [5]: 0 | Activity [9]: 0

HHPHGHHPHGHHPHGHHPHG [compound 4189]
Activity [5]: 1 | Activity [6]: 1 | Activity [7]: 1 | Activity [2]: 1
